Legend:
Assay type in all cases: cell-based, human
washed platelets [1] = assay: sCD40L release from TRAP activated, not aggregated washed platelets (ELISA); conditions: for release of sCD40L from TRAP activated, but not aggregated, platelets: 50 μM, FIG. 3; for release of sCD154 from TRAP-stimulated platelets: 5-50 μM inhibitor, 5 μM TRAP, no rocking
Procedure: Washed platelets were prepared from blood drawn into ⅙^th volume of ACD containing (85 mM sodium citrate, 111 mM dextrose and 71 mM citric acid) with 0.05 μg/ml PGI2. Collected blood was centrifuged at 160×g for 20 minutes at room temperature (Beckman GP) and the PRP layer was collected. PRP was then centrifuged at 1100×g for 10 minutes to sediment platelets. Platelets were washed twice by repeat suspending and pelleting in CGS (13 mM trisodium citrate, 120 mM NaCl, 30 mM Dextrose, pH 7.0) containing 0.05 μg/ml PGI2 for the first wash. The final suspension of platelets (5×10^8/ml) was in Tyrode's Hepes.
The release of sCD40L from the activated platelets was determined as follows: 500 μL of washed platelets were gently mixed 5 μM of TRAP and incubated at 37° C. without rocking for 30 min. Under this condition, platelets were activated but not aggregated. 5-50 μM of metalloproteinase inhibitors GM6001 (Galardin, Calbiochem) or TAPI-1 (Peptides International) were added to the washed platelets before the addition of TRAP. Platelets were removed from suspension by centrifugation for 10 minutes at 15,000×g, 4° C. and the resulting supernatants were collected. The levels of sCD154 were measured by ELISA.

washed platelets [2] = assay: Cleavage of CD40L into sCD40L in platelet lysates (immunoblotting); conditions: TRAP 5 μM; activated or aggregated platelets; FIG. 4
Procedure: Collected blood was centrifuged at 160×g for 20 minutes at room temperature (Beckman GP) and the PRP layer was collected. PRP was then centrifuged at 1100×g for 10 minutes to sediment platelets. Platelets were washed twice by repeat suspending and pelleting in CGS (13 mM trisodium citrate, 120 mM NaCl, 30 mM Dextrose, pH 7.0) containing 0.05 μg/ml PGI2 for the first wash. The final suspension of platelets (5×10^8/ml) was in Tyrode's Hepes.
Cleavage of the full length CD40L (32 kD) yields the 18 kD soluble from (sCD40L). 500 μl of Washed platelets were gently mixed with TRAP (5 μM) to initiate the platelet activation. Metalloproteinase inhibitors GM6001 (50 μM, Calbiochem) or DMSO were added to washed platelets, and incubated at 37° C. with or without rocking for 30 minutes. […] Platelets were removed from suspension by centrifugation for 10 minutes at 15,000×g, 4° C. and the resulting platelet pellets were dissolved in the loading buffer. The proteins in the platelet lysates were resolved with SDS-PAGE, transferred onto nitrocellulose membrane, and blotted with anti-CD40L antibody (MK13A4, Alexis).

washed platelets [3] = assay: TRAP6-induced aggregation of washed platelets (aggregometer); conditions: 1 μM TRAP6; 0.1-1.0 μg/ml TIMP-2 or 5-50 μM TAPI-1
Procedure: (§1) Washed platelets were prepared from blood drawn into ⅙ th volume of ACD containing (85 mM sodium citrate, 111 mM dextrose and 71 mM citric acid) with 0.05 μg/ml PGI2. Collected blood was centrifuged at 160×g for 20 minutes at room temperature (Beckman GP) and the PRP layer was collected. PRP was then centrifuged at 1100×g for 10 minutes to sediment platelets. Platelets were washed twice by resuspending in CGS (13 mM trisodium citrate, 120 mM NaCl, 30 mM Dextrose, pH 7.0) containing 0.05 μg/ml PGI2 for the first wash. The final suspension of platelets (3×10^8/ml) was in Tyrode's Hepes.
a. For platelet aggregation studies, 500 μL of washed platelets were allowed to stir in a Chrono-Log Aggregometer before the addition of 1 μM TRAP6 to initiate aggregation. Subsequent samples included various metalloproteinase inhibitors added to washed platelets before the addition of TRAP6; 0.1-1.0 μg/ml TIMP-2 (Calbiochem) or 5-50 μM TAPI-1 (Peptides International). Aggregation proceeded for 5 minutes and the amplitude of each aggregometer tracing was calculated by Aggro-Link software.

washed platelets [4] = assay: sCD154 release from TRAP6-stimulated washed platelets with rocking (ELISA); conditions: rocking 30 minutes, 37° C.
Procedure: as §1
b. CD154 determinations were made as follows: Washed platelets were incubated at 37° C. with various concentrations of TIMP-2 and TAPI-1 (see above) while rocking on a Nutator for 30 minutes. Platelets or platelet aggregates were removed from suspension by centrifugation for 10 minutes at 15,000×g, 4° C. and the resulting supernatants were collected. The levels of sCD154 were measured by ELISA.

CNC(=O)[C@H](Cc1c[nH]c2ccccc12)NC(=O)[C@@H](CC(=O)NO)CC(C)C [GM6001, N-[(2R)-2-(Hydroxamidocarbonylmethyl)-4-methylpentanoyl]-L-tryptophan methylamide]
inhibited: release of sCD40L from TRAP activated, but not aggregated, platelets (washed platelets [1]) | release of sCD154 from TRAP-stimulated platelets (washed platelets [1]) | cleavage of the full length CD40L to the 18 kD soluble form (washed platelets [2])

CC(C)C[C@H](CC(=O)NO)C(=O)N[C@@H](Cc1ccc2ccccc2c1)C(=O)N[C@@H](C)C(=O)NCCN [TAPI-1, HONHCOCH2CH(CH2CH(CH3)2-CO-NaI-Ala-NHCH2CH2NH2]
inhibited: platelet aggregation induced by sub-optimal concentrations of TRAP6 (washed platelets [3]) | release of sCD154 from TRAP6-stimulated platelets (washed platelets [4]) | release of sCD40L from TRAP activated, but not aggregated, platelets (washed platelets [1]) | release of sCD154 from TRAP-stimulated platelets (washed platelets [1])
